{"source": "PubChem BioAssay (NCI)", "experiment_in_all_cases": "inhibition of tumour cell growth, NCI panel, 48 h", "key": {"HCC-2998 colon": {"test_system": "HCC-2998 colon"}, "HCT-15 colon": {"test_system": "HCT-15 colon"}, "IGROV1 ovarian": {"test_system": "IGROV1 ovarian"}, "OVCAR-3 ovarian": {"test_system": "OVCAR-3 ovarian"}, "HT29 colon": {"test_system": "HT29 colon"}, "M14 melanoma": {"test_system": "M14 melanoma"}, "UACC-257 melanoma": {"test_system": "UACC-257 melanoma"}, "MCF7 breast": {"test_system": "MCF7 breast"}, "TK-10 renal": {"test_system": "TK-10 renal"}, "CAKI-1 renal": {"test_system": "CAKI-1 renal"}, "SN12C renal": {"test_system": "SN12C renal"}, "MALME-3M melanoma": {"test_system": "MALME-3M melanoma"}, "K-562 leukemia": {"test_system": "K-562 leukemia"}, "SNB-19 CNS": {"test_system": "SNB-19 CNS"}, "CCRF-CEM leukemia": {"test_system": "CCRF-CEM leukemia"}, "NCI-H23 lung": {"test_system": "NCI-H23 lung"}, "OVCAR-8 ovarian": {"test_system": "OVCAR-8 ovarian"}}, "note": "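Five compound concentrations were applied to cells in 96-well plates for 48 hours; endpoints were derived by simple linear interpolation of the resulting dose-response curve. TGI: concentration producing complete growth inhibition.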 *1 amine or outer side, *2 acyl side, *3 side chain or, on linkers, in order; H or OH if unused. Where a SMILES comes first, the peptide text is derived from it. [ ]: non-standard residue; d: D form. The star is where a group is joined. ξ: configuration not given here. NMeY = CN[C@@H](Cc1ccc(O)cc1)C(=O)O; Ethylenediamine = C(CN[*:2])N[*:1]; ξNMeL = CNC(CC(C)C)C(=O)O; Cbz = O=C(OCc1ccccc1)*; Lac = C[C@H](O)C(=O)O; ξA = CC(N)C(=O)O", "data": [{"smiles": "COc1ccc(C[C@@H](C(=O)NCCNC(=O)C(CC(C)C)N(C)C(=O)[C@@H]2CCCN2C(=O)[C@H](C)O)N(C)C(=O)[C@@H]2CCCN2C(=O)[C@H](CC(C)C)NC(=O)C(C)NC(=O)OCc2ccccc2)cc1", "note": "(some centres undefined) (Cbz-[ξA]LP[NMeY](Me)-{Ethylenediamine-ξNMeL-Pro-Lac})", "values": [{"measurement": "TGI", "setting": "HCC-2998 colon", "value": "> 100", "unit": "µM"}, {"measurement": "TGI", "setting": "HCT-15 colon", "value": "> 100", "unit": "µM"}, {"measurement": "TGI", "setting": "IGROV1 ovarian", "value": "> 100", "unit": "µM"}, {"measurement": "TGI", "setting": "OVCAR-3 ovarian", "value": "> 100", "unit": "µM"}, {"measurement": "TGI", "setting": "HT29 colon", "value": "> 100", "unit": "µM"}, {"measurement": "TGI", "setting": "M14 melanoma", "value": "> 100", "unit": "µM"}, {"measurement": "TGI", "setting": "UACC-257 melanoma", "value": "> 100", "unit": "µM"}, {"measurement": "TGI", "setting": "MCF7 breast", "value": "> 100", "unit": "µM"}, {"measurement": "TGI", "setting": "TK-10 renal", "value": "> 100", "unit": "µM"}, {"measurement": "TGI", "setting": "CAKI-1 renal", "value": "> 100", "unit": "µM"}, {"measurement": "TGI", "setting": "SN12C renal", "value": "> 100", "unit": "µM"}, {"measurement": "TGI", "setting": "MALME-3M melanoma", "value": "> 100", "unit": "µM"}, {"measurement": "TGI", "setting": "K-562 leukemia", "value": "> 100", "unit": "µM"}, {"measurement": "TGI", "setting": "SNB-19 CNS", "value": "> 100", "unit": "µM"}, {"measurement": "TGI", "setting": "CCRF-CEM leukemia", "value": "> 100", "unit": "µM"}, {"measurement": "TGI", "setting": "NCI-H23 lung", "value": "> 100", "unit": "µM"}, {"measurement": "TGI", "setting": "OVCAR-8 ovarian", "value": "> 100", "unit": "µM"}]}, {"smiles": "CN(CCNC(=O)c1c[nH]c2c1ccc1ccccc12)CCNC(=O)c1c[nH]c2c1ccc1ccccc12", "values": [{"measurement": "TGI", "setting": "HCC-2998 colon", "value": 2.87, "unit": "µM"}, {"measurement": "TGI", "setting": "HCT-15 colon", "value": 3.83, "unit": "µM"}, {"measurement": "TGI", "setting": "IGROV1 ovarian", "value": 3.08, "unit": "µM"}, {"measurement": "TGI", "setting": "OVCAR-3 ovarian", "value": 17.3, "unit": "µM"}, {"measurement": "TGI", "setting": "HT29 colon", "value": 3.5, "unit": "µM"}, {"measurement": "TGI", "setting": "M14 melanoma", "value": 3.52, "unit": "µM"}, {"measurement": "TGI", "setting": "UACC-257 melanoma", "value": 3.94, "unit": "µM"}, {"measurement": "TGI", "setting": "MCF7 breast", "value": 2.74, "unit": "µM"}, {"measurement": "TGI", "setting": "TK-10 renal", "value": 9.75, "unit": "µM"}, {"measurement": "TGI", "setting": "CAKI-1 renal", "value": 10.1, "unit": "µM"}, {"measurement": "TGI", "setting": "SN12C renal", "value": 11.7, "unit": "µM"}, {"measurement": "TGI", "setting": "MALME-3M melanoma", "value": 23, "unit": "µM"}, {"measurement": "TGI", "setting": "K-562 leukemia", "value": 3.31, "unit": "µM"}, {"measurement": "TGI", "setting": "SNB-19 CNS", "value": 6.23, "unit": "µM"}, {"measurement": "TGI", "setting": "CCRF-CEM leukemia", "value": 3.86, "unit": "µM"}, {"measurement": "TGI", "setting": "NCI-H23 lung", "value": 11.3, "unit": "µM"}, {"measurement": "TGI", "setting": "OVCAR-8 ovarian", "value": 3.91, "unit": "µM"}]}]}
